According to PubChem BioAssay (NCI):
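96-well plates; 48 h exposure; 5 concentrations. Endpoints by linear interpolation between flanking doses. Not reached: highest tested concentration assigned. TGI: concentration producing complete growth inhibition.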

Experiments:
Assay in all cases: NCI-60 cell line screen, 48 h
[1] = tested on: MALME-3M melanoma
[2] = tested on: EKVX NSCLC
[3] = tested on: 786-0 renal
[4] = tested on: SK-MEL-5 melanoma
[5] = tested on: SR leukemia
[6] = tested on: SNB-75 CNS
[7] = tested on: CAKI-1 renal
[8] = tested on: DLD-1 colon
[9] = tested on: OVCAR-3 ovarian
[10] = tested on: A549 NSCLC
[11] = tested on: RXF-631 renal
[12] = tested on: K-562 leukemia
[13] = tested on: IGROV1 ovarian
[14] = tested on: SK-MEL-28 melanoma
[15] = tested on: XF 498 CNS
[16] = tested on: M19-MEL melanoma
[17] = tested on: SNB-78 CNS
[18] = tested on: CCRF-CEM leukemia
[19] = tested on: M14 melanoma
[20] = tested on: SN12C renal
[21] = tested on: SF-539 CNS
[22] = tested on: OVCAR-5 ovarian
[23] = tested on: KM12 colon
[24] = tested on: NCI-H460 lung
[25] = tested on: RXF 393 renal
[26] = tested on: UACC-257 melanoma
[27] = tested on: HL-60(TB) leukemia
[28] = tested on: UACC-62 melanoma
[29] = tested on: HOP-92 NSCLC
[30] = tested on: UO-31 renal
[31] = tested on: MOLT-4 leukemia
[32] = tested on: SW-620 colon
[33] = tested on: SK-OV-3 ovarian
[34] = tested on: A498 renal
[35] = tested on: SK-MEL-2 melanoma
[36] = tested on: HCT-116 colon
[37] = tested on: SF-295 CNS
[38] = tested on: OVCAR-4 ovarian
[39] = tested on: DMS 273 small cell lung
[40] = tested on: SF-268 CNS
[41] = tested on: NCI-H226 lung
[42] = tested on: HT29 colon
[43] = tested on: TK-10 renal
[44] = tested on: NCI-H23 lung
[45] = tested on: OVCAR-8 ovarian
[46] = tested on: SNB-19 CNS
[47] = tested on: U251 CNS
[48] = tested on: HCT-15 colon
[49] = tested on: COLO 205 colon
[50] = tested on: LOX IMVI melanoma
[51] = tested on: HOP-62 NSCLC
[52] = tested on: HOP-18 NSCLC
[53] = tested on: ACHN renal
[54] = tested on: DMS 114 small cell lung
[55] = tested on: HCC-2998 colon

O=C(NC1CCC[C@H]1OC(=O)c1ccccc1)c1ccccc1 (stereo not given in full)
TGI [1]: > 100 µM
TGI [2]: > 100 µM
TGI [3]: > 100 µM
TGI [4]: > 100 µM
TGI [5]: > 100 µM
TGI [6]: 98.9 µM
TGI [7]: > 100 µM
TGI [8]: > 100 µM
TGI [9]: > 100 µM
TGI [10]: > 100 µM
TGI [11]: > 100 µM
TGI [12]: > 100 µM
TGI [13]: > 100 µM
TGI [14]: > 100 µM
TGI [15]: > 100 µM
TGI [16]: > 100 µM
TGI [17]: > 100 µM
TGI [18]: > 100 µM
TGI [19]: > 100 µM
TGI [20]: > 100 µM
TGI [21]: > 100 µM
TGI [22]: > 100 µM
TGI [23]: > 100 µM
TGI [24]: > 100 µM
TGI [25]: > 100 µM
TGI [26]: > 100 µM
TGI [27]: > 100 µM
TGI [28]: > 100 µM
TGI [29]: > 100 µM
TGI [30]: > 100 µM
TGI [31]: > 100 µM
TGI [32]: > 100 µM
TGI [33]: > 100 µM
TGI [34]: > 100 µM
TGI [35]: > 100 µM
TGI [36]: > 100 µM
TGI [37]: > 100 µM
TGI [38]: > 100 µM
TGI [39]: > 100 µM
TGI [40]: > 100 µM
TGI [41]: 96.1 µM
TGI [42]: > 100 µM
TGI [43]: > 100 µM
TGI [44]: > 100 µM
TGI [45]: > 100 µM
TGI [46]: > 100 µM
TGI [47]: > 100 µM

COc1ccc(N=NC2=C(O)CCC2=O)cc1
TGI [48]: > 100 µM
TGI [1]: > 100 µM
TGI [2]: > 100 µM
TGI [3]: > 100 µM
TGI [4]: > 100 µM
TGI [49]: > 100 µM
TGI [6]: > 100 µM
TGI [7]: > 100 µM
TGI [8]: > 100 µM
TGI [9]: > 100 µM
TGI [10]: > 100 µM
TGI [11]: > 100 µM
TGI [12]: > 100 µM
TGI [13]: > 100 µM
TGI [50]: > 100 µM
TGI [14]: > 100 µM
TGI [51]: > 100 µM
TGI [16]: > 100 µM
TGI [17]: > 100 µM
TGI [18]: > 100 µM
TGI [19]: > 100 µM
TGI [20]: > 100 µM
TGI [21]: > 100 µM
TGI [52]: > 100 µM
TGI [22]: > 100 µM
TGI [23]: > 100 µM
TGI [24]: > 100 µM
TGI [25]: > 100 µM
TGI [26]: > 100 µM
TGI [27]: > 100 µM
TGI [28]: 30.6 µM
TGI [29]: > 100 µM
TGI [53]: > 100 µM
TGI [54]: > 100 µM
TGI [30]: > 100 µM
TGI [55]: > 100 µM
TGI [31]: > 100 µM
TGI [32]: > 100 µM
TGI [33]: > 100 µM
TGI [34]: > 100 µM
TGI [35]: > 100 µM
TGI [36]: > 100 µM
TGI [37]: > 100 µM
TGI [38]: > 100 µM
TGI [39]: > 100 µM
TGI [40]: > 100 µM
TGI [41]: > 100 µM
TGI [42]: > 100 µM
TGI [43]: > 100 µM
TGI [44]: > 100 µM
TGI [45]: > 100 µM
TGI [46]: > 100 µM
TGI [47]: > 100 µM
